Biological target: T1, PAF specific receptor binding site, human platelet membranes (Homo sapiens, UniProt P25105)
T1 construct: from tissue; host or cells: human platelets (plasma membrane suspension)
Experiment: Inhibition of [3H] N-methylcarbamoyl-PAF binding to human platelet membranes
Details: trans configuration; for inhibition at 0.003 µM: 3 nM; for inhibition at 0.03 µM: 30 nM
Protocol: The compounds of formula (I) inhibit PAF-induced functions in both the cellular and tissue levels by changing the PAF binding to its specific receptor site. The ability of a compound of formula (I) to inhibit the PAF binding to its specific receptor binding site on rabbit or human platelet or PMN plasma membranes was measured by a recently developed assay.
The inhibition of ^3 [H]-PAF or ^3 [H]-N-methylcarbamoyl-PAF binding to the human or rabbit platelet or PMN plasma membrane by a PAF antagonist of formula (I) was determined by a method employing isotopic labeling and filtration techniques. Generally, a series of Tris-buffered solutions of the selected antagonist at predetermined concentrations were prepared. Each of these solutions contains 1 pmole of ^3 H-PAF, a known amount of the test antagonist, and a sufficient amount of the pH 7.5 Tris-buffer solution (10 mM Tris, 0.25% bovine serum albumin, and 150 mM NaCl per ml water) to make the final volume of 1 ml. After adding into a set of test tubes each with 100 μg of the platelet plasma membrane suspension (S. B. Hwang, et al., Biochemistry. Vol. 22, pp. 4756-4763, 1983) and one of the Tris-buffer solutions described above, the resulting mixture in each test tube was incubated at 0° C. for about one hour or until the reaction was complete. Two control samples, one of which (C1) contains all the ingredients described above except the antagonist and the other (C2) contains C 1 plus a 1000-fold excess of unlabeled PAF, were also prepared and incubated simultaneously with the test samples. After the incubation was completed, the contents of each test tube were filtered under vacuo through a Whatman GF/C fiberglass filter and the residue washed rapidly several times with a total of 20 ml cold (0°-5° C.) Tris buffer solution. Each washed residue was then suspended in 10 ml scintillation solution (Aquasol 2, New England Nuclear, Conn.) and the radioactivity was counted in a Packard Tri-Carb 460CD Liquid Scintillation System. Defining the counts from a test sample as "Total binding with antagonist"; the counts from the control sample C1, as "Total binding C1 "; and the counts from the control sample C2 as "non-specific binding C2 ", the percent inhibition of each test antagonist can be determined by the following equations: [formula]
Specific binding=(Total binding C1)-(non-specific binding C2)
*Inibition of the binding of [^3 H] Nmethylcarbamoyl-PAF to human

T1 sequence (P25105 whole entry): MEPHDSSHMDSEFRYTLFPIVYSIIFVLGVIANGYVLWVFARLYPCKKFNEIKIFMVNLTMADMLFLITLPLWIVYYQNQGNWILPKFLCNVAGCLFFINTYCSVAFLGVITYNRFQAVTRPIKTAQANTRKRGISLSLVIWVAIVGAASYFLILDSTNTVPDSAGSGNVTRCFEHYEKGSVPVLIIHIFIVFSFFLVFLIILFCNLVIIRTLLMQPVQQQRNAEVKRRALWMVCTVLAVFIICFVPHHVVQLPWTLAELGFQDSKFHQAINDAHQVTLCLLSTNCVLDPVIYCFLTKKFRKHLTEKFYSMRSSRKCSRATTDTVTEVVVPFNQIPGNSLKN

inhibition at 0.003 µM | inhibition at 0.03 µM | Compound
30% | 66% | CCCOc1c(OCC(C)=O)cc([C@@H]2CC[C@@H](c3cnc(OC)c(OC)c3)O2)cc1S(=O)(=O)CCCO (relative stereo)
43% | 87% | CCCOc1c(OCCCO)cc([C@@H]2CC[C@@H](c3cnc(OC)c(OC)c3)O2)cc1S(=O)(=O)CC(C)=O (relative stereo) [trans-2-[3-(2-oxopropyl)sulfonyl-4-n-propoxy-5-(3-hydroxypropoxy)phenyl]-5[5-(2,3-dimethoxy)pyridyl]tetrahydrofuran]
12% | 66% | CCCOc1c(OCC(C)=O)cc([C@H]2CC[C@H](c3cccnc3)O2)cc1S(=O)(=O)CCC (relative stereo) [trans-2-[3-n-propylsulfonyl-4-n-propoxy-5-(2-oxopropoxy)phenyl]-5-(3-pyridyl) tetrahydrofuran]
63% | 93% | CCCOc1c(OCC(C)=O)cc([C@@H]2CC[C@@H](c3cnc(OC)c(OC)c3)O2)cc1S(=O)(=O)CCC (relative stereo) [trans-2-[3-n-propylsulfonyl-4-n-propoxy-5-(2-oxopropoxy)phenyl]-5-[5-(2,3-dimethoxy)pyridyl]tetrahydrofuran]
58% | 100% | CCCOc1c(OCC(C)=O)cc([C@@H]2CC[C@@H](c3cnc(OC)c(OC)n3)O2)cc1S(=O)(=O)CCC (relative stereo) [trans-2-[3-n-propylsulfonyl-4-n-propoxy-5-(2-oxopropoxy)phenyl]-5-[6-(2,3-dimethoxy)pyrazyl]tetrahydrofuran]
13% | 58% | CCCOc1c(OCCO)cc([C@@H]2CC[C@@H](c3cnc(OC)c(OC)c3)O2)cc1S(=O)(=O)CC(C)O (stereo partly drawn) [trans-2-[3-(2-Hydroxypropyl)sulfonyl-4-n-propoxy 5-(2-hydroxyethoxy)phenyl]-5-[5-(2,3-dimethoxy)pyridyl]tetrahydrofuran]
31% | 81% | CCCOc1c(OCC(C)=O)cc([C@@H]2CC[C@@H](c3cnc(OC)c(OC)c3)O2)cc1S(=O)(=O)CC(C)O (stereo partly drawn) [trans-2-[3-(2-Hydroxypropyl)sulfonyl-4-n-propoxy-5-(2-oxopropoxy)phenyl]-5-[5-(2,3-dimethoxy)pyridyl]tetrahydrofuran]
42% | 81% | CCCOc1c(OCC(C)=O)cc([C@@H]2CC[C@@H](c3cnc(OC)c(OC)n3)O2)cc1S(=O)(=O)CC(C)O (stereo partly drawn) [trans-2-[3-(2-Hydroxypropyl)sulfonyl-4-n-propoxy-5-(2-oxopropoxy)phenyl]-5-[6-(2.3 dimethoxy)pyrazyl]tetrahydrofuran]
16% | 75% | CCCOc1c(OCCCO)cc([C@@H]2CC[C@@H](c3cnc(OC)c(OC)c3)O2)cc1S(=O)(=O)CC(C)O (stereo partly drawn) [trans-2-[3-(2-Hydroxypropyl)sulfonyl-4-n-propoxy-5-(3-hydroxypropoxy)phenyl]-5[5-(2,3-dimethoxy)pyridyl]tetrahydrofuran]
54% | 100% | CCCOc1c(OCC(C)O)cc([C@@H]2CC[C@@H](c3cnc(OC)c(OC)c3)O2)cc1S(=O)(=O)CCC (stereo partly drawn) [trans-2-[3-n-propylsulfonyl-4-n-propoxy-5-(2-hydroxypropoxy)phenyl]-5-[5-(2,3-dimethoxy)pyridyl]tetrahydrofuran]
60% | 100% | CCCOc1c(OCC(C)O)cc([C@@H]2CC[C@@H](c3cnc(OC)c(OC)n3)O2)cc1S(=O)(=O)CCC (stereo partly drawn) [trans-2-[3-n-propylsulfonyl-4-n-propoxy-5-(2-hydroxypropoxy)phenyl]-5-[6-(2,3-dimethoxy)pyrazyl]tetrahydrofuran]

Source: patent US5011847A, “2,5-diaryl tetrahydrofurans and analogs thereof as PAF antagonists” (Merck & Co., Inc., priority 1989, dated 1991)
